The term mortality denotes the share of the test organisms that died.

The text below walks through data of patent US20080261812A1, “Pesticidal Mixtures” (BASF SE, priority 2005, published 2008).

For the experiment, the system named is southern armyworm (Spodoptera eridania) 3rd-instar larvae. The experiment in a line: Laboratory bioassay with southern armyworm larvae on dip-treated lima bean leaves. In kind it is in vivo. Conditions: foliar, 120 h, read-out: % Mortality Observed. From the text:
Serial dilutions of technical grade insecticides were made in 1:1 acetone:water diluent. Lima bean leaves were dipped into treatment solutions and allowed to air-dry. A single treated leaf was placed topside-up onto water-moistened filter paper in plastic Petri dishes, and then seven 3rd-instar southern armyworm (Spodoptera eridania) larvae were placed onto each leaf. Dishes were covered with a plastic lid to contain larvae. Each treatment was replicated 4 times (1 replicate=1 Petri dish). Following treatment application, infested Petri dishes were held in the laboratory under fluorescent lighting at 26° C. Numbers of live and dead larvae were counted in each dish at 5 days after treatment (DAT), and percent mortality was calculated for each treatment.
To determine if the insecticidal mixture was synergistic, Limpel's formula was used:
E=Expected % mortality of the mixture X=% mortality of compound X, as measured independently Y=% mortality of compound Y, as measured independently
Synergism was evident if the % observed mortality for the mixture was greater than the % expected mortality.

Where two headings read alike, the source gives them in different places.

For `N#Cc1ccc(CC(=NNC(=O)Nc2ccc(OC(F)(F)F)cc2)c2cccc(C(F)(F)F)c2)cc1` [Metaflumizone, metaflumizone], under “single insecticide, dose concentration 0.6 ppm, leaf dip, 5 DAT, 3rd-instar larvae”, the mortality at 0.6 ppm is 0%. For the setting “single insecticide, dose concentration 1.0 ppm, leaf dip, 5 DAT, 3rd-instar larvae”, the mortality at 1 ppm was found to be 7%. `FC(F)(F)c1ccc(OCCCOc2c(Cl)cc(OCC=C(Cl)Cl)cc2Cl)nc1` [Pyridalyl, 2,6-dichloro-4-(3,3-dichloroallyloxy)phenyl 3-[5-(trifluoromethyl)-2-pyridyloxy]propyl ether]: the mortality at 0.6 ppm stood at 10%.
